Assay results reported in patent EP4497440A1, “USE OF 7-TRIFLUOROMETHYL-7ALPHA,25-DIHYDROXYCHOLESTEROL IN THE TREATMENT AND MODULATION OF AUTOIMMUNE AND INFLAMMATORY DISEASES OF THE NERVOUS SYSTEM AND NEURODEGENERATIVE DISEASES” (Gdanski Uniwersytet Medyczny, priority 2023, dated 2025).

System: mice in the cuprizone model
Assay: Cuprizone model: luxol fast blue staining, lipoprotein (myelin) density in the corpus callosum
Format: in vivo
Conditions: 20 mg/kg subcutaneously once a day for 2 weeks after 9 weeks of cuprizone (group #5), compared to vehicle group #3
Description: Measurement of lipoprotein density in myelin sheaths, taken on sections of brains of the mice in the cuprizone model. The mice in the cuprizone model subject were divided into 6 groups: • #1. control group: regular cuprizone-free chow for 9 weeks. The mice were euthanised after 9 weeks and tissue samples were taken for analysis. In these mice no removal of myelin sheaths occurred. • #2. control group with cuprizone: chow containing cuprizone for 9 weeks. The mice were euthanised after 9 weeks and tissue samples were taken for analysis. In the mice fed with chow containing cuprizone myelin sheaths were removed. • #3. vehicle control group - the mice were fed with chow containing cuprizone for 9 weeks, and then with regular chow without cuprizone for 2 weeks. Over the 2 weeks on regular show the mice in the vehicle control group were first injected with vehicle #1: DMSO, intraperitoneally, 150 µl once a day, and then with vehicle #2: canola oil, subcutaneously, 150 µl once a day. • #4. barbadin control group - the mice were fed with chow containing cuprizone for 9 weeks and then with regular chow without cuprizone for 2 weeks. Over the 2 weeks on regular chow the mice in this group were injected with barbadin 0.3 mg/kg, intraperitoneally, 150 µl once a day and then with vehicle #2: canola oil, subcutaneously, 150 µl once a day. • #5. oxysterol experimental group - the mice were fed with chow containing cuprizone for 9 weeks and then with regular chow without cuprizone for 2 weeks. […] Brain sections sampled from the mice were histochemically stained with luxol fast blue (Abcam, cat. No. Ab 150675), and the intensity (density) of the lipid staining in the corpus callosum was measured using the ImageJ software (ImageJ (nih.gov)). […]

For `C[C@H](CCCC(C)(C)O)[C@H]1CC[C@H]2[C@H]3[C@H](CC[C@]12C)[C@@]1(C)CC[C@H](O)CC1=C[C@]3(O)C(F)(F)F` [CF3-7α,25OHC, cholestene-7β-trifluoromethyl,3β,7α,25-triol], the “lipoprotein density in the corpus callosum, higher by” value was 16%, the “myelin density / myelin regeneration in the corpus callosum” value was “increased” and the “myelin density / myelin regeneration in the corpus callosum” value (listed as CF3-7α25OHC) was “more efficient (or faster) myelin regeneration”.
